Data taken from US20130040912A1, “PIPERAZINOTRIAZINES AS PI3K INHIBITORS FOR USE IN THE TREATMENT ANTIPROLIFERATIVE DISORDERS” (UNIVERSITY OF BASEL, priority 2010, published 2013).
Read-outs that look alike come from different tables or passages of the source.

How the values were obtained:
PI3Kalpha = PI3Kalpha (Homo sapiens, UniProt P42336); test: in vitro PI3Kalpha inhibition, Kinase Glo assay; type: biochemical; conditions: for remaining activity at 0.2 µM: Kinase Glo assay at 200 nM, % remaining activity, the smaller the value, the stronger the inhibition, read-out: In vitro PI3Kα, % remaining activity; for inhibitor activity against PI3K (in words): compared with ZSTK474 (4)
Procedure: (§1) The inhibitor efficacy and the cell permeability of the compounds of the invention are measured by in cell Western inhibition assay on melanoma cell line A2058 and TSC2−/− MEFs cell line. Furthermore, in vitro PI3Kalpha inhibition is measured (Table 1).

melanoma cell line A2058 = test: in cell Western inhibition assay on melanoma cell line A2058; type: cell-based; conditions: Homo sapiens, the smaller the value, the stronger the inhibition
Procedure: as §1

TSC2-/- MEFs cell line = test: in cell Western inhibition assay on TSC2-/- MEFs cell line; type: cell-based; conditions: for activity at 1 µM: in cell Western, the smaller the value, the stronger the inhibition, read-out: TSC2-/- MEFs cell inhibition pS6, % remaining activity; for selectivity to mTOR (in words): compared with ZSTK474 (4)
Procedure: as §1

PI3Kgamma isoform = PI3Kgamma isoform (Homo sapiens, UniProt P48736); test: fluorescence correlation spectroscopy binding to PI3Kgamma; conditions: binding leads to an increase in diffusion time
Procedure: Fluorophore containing compound 13 can be used as a reference inhibitor by fluorescence correlation spectroscopy experiments in which the binding constants of novel inhibitors are determined. […] When the enzyme is saturated with compound 13, new possible ligands can be tested by observing the release of compound 13. This leads to a decrease in diffusion time.

[1] = read-out: A2058 cell inhibition pPKB/PKB, % remaining activity
[2] = read-out: A2058 cell inhibition pS6, % remaining activity

Chain of PI3Kalpha (P42336 whole entry, species assumed): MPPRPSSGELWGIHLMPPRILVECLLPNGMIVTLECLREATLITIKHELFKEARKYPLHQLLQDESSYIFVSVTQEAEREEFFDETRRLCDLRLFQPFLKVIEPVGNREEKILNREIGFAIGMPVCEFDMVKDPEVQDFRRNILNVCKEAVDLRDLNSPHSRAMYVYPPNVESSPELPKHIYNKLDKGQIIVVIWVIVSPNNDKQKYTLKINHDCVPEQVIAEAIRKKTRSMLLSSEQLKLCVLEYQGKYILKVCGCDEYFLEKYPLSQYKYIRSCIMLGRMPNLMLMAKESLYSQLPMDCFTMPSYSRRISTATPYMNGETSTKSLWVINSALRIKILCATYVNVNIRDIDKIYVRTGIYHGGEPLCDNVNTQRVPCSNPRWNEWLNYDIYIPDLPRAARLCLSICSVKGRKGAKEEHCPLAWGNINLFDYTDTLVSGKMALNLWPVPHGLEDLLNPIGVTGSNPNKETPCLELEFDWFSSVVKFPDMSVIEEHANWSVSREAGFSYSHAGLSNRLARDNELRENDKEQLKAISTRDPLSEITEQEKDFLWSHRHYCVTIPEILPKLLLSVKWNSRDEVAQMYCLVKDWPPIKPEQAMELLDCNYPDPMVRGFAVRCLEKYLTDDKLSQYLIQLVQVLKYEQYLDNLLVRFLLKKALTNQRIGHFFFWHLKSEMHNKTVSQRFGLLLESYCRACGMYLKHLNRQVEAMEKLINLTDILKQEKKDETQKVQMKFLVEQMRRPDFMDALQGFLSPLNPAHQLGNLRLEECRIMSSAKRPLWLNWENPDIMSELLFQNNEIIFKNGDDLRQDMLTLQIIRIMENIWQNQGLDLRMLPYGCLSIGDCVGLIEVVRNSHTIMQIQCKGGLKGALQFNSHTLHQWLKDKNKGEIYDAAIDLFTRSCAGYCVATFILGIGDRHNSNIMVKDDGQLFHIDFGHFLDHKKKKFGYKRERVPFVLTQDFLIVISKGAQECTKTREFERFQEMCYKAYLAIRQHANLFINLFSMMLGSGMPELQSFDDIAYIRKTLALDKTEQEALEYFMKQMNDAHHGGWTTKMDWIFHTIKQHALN
Chain of PI3Kalpha (P27986 whole entry partner, species assumed): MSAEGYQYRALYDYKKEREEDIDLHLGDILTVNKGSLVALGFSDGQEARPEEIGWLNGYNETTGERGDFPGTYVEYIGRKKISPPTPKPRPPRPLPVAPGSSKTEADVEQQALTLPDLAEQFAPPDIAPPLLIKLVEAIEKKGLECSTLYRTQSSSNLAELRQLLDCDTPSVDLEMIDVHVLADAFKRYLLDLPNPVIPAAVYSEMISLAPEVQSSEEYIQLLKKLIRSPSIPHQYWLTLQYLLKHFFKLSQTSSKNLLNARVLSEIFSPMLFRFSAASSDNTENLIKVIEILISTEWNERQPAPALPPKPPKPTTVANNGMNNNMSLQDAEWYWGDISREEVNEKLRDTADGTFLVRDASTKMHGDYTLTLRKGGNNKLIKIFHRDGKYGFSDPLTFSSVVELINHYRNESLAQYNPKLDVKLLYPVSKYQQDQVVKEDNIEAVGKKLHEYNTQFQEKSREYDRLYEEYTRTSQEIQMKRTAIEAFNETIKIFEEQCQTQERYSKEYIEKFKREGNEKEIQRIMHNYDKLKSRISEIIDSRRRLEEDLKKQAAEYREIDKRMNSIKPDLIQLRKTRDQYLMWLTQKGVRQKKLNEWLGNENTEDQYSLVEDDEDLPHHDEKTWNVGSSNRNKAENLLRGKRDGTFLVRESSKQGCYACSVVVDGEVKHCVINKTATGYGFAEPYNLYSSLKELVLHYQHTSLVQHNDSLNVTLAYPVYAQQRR
Chain of PI3Kgamma isoform (P48736 whole entry, the tested form may be a part, canonical isoform): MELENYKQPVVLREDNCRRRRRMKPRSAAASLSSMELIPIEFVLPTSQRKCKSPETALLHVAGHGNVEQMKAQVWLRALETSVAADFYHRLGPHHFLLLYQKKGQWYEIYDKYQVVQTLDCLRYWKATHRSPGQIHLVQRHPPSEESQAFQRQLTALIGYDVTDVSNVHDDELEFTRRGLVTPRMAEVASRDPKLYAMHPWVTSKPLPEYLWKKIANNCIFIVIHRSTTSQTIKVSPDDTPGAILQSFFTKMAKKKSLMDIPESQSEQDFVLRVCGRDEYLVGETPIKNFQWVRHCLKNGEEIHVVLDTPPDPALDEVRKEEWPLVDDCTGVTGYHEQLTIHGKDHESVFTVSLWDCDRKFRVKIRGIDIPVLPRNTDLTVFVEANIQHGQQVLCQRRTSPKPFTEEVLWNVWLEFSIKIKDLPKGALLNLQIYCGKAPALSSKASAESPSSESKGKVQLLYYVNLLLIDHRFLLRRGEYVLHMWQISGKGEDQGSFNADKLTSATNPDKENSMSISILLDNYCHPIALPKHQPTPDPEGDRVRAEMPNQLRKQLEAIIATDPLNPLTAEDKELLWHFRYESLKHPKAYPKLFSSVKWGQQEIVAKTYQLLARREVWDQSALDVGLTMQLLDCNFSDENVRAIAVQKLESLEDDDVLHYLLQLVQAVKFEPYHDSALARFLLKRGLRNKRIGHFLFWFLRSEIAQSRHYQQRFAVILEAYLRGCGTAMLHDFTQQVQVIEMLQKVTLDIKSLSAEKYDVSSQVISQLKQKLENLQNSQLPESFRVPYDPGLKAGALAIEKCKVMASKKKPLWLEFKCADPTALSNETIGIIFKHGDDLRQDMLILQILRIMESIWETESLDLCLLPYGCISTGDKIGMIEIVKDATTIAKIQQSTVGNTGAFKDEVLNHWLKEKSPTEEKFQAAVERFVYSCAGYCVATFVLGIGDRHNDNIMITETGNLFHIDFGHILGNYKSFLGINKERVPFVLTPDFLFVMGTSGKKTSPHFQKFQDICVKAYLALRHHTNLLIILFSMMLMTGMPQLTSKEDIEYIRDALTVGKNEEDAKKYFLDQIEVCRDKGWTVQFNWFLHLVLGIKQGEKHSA

| SMILES | remaining activity at 0.2 µM (PI3Kalpha) | binding to PI3Kgamma isoform (in words) (PI3Kgamma isoform) | activity at 1 µM (melanoma cell line A2058; [1]) | activity at 1 µM (melanoma cell line A2058; [2]) | activity at 1 µM (TSC2-/- MEFs cell line) | activity (in words) (PI3Kalpha) | inhibitor activity against PI3K (in words) (PI3Kalpha) | selectivity to mTOR (in words) (TSC2-/- MEFs cell line) |
| --- | --- | --- | --- | --- | --- | --- | --- | --- |
| FC(F)c1nc2ccccc2n1-c1nc(N2CCOCC2)nc(N2CCOCC2)n1 [Compound 4, 4,4′-(6-(2-(Difluoromethyl)-1H-benzo[d]imidazol-1-yl)-1,3,5-triazine-2,4-diyl)dimorpholine, reference compound] | 13% | – | 3.63 ± 1.1% | 22.5 ± 0.13% | 37.9 ± 4.21% | – | – | – |
| CCS(=O)(=O)N1CCN(c2nc(N3CCOCC3)nc(-n3c(C(F)F)nc4ccccc43)n2)CC1 [Compound 7, 4-(4-(2-(Difluoromethyl)-1H-benzo[d]imidazol-1-yl)-6-(4-(ethylsulfonyl)piperazin-1-yl)-1,3,5-triazin-2-yl)morpholine] | 35% | – | 30.7 ± 1.08% | 56.7 ± 10.6% | 104 ± 4.27% | – | slightly decreased | notable reduced |
| C=CC(=O)N1CCN(c2nc(N3CCOCC3)nc(-n3c(C(F)F)nc4ccccc43)n2)CC1 [Compound 8, 1-(4-(4-(2-(Difluoromethyl)-1H-benzo[d]imidazol-1-yl)-6-morpholino-1,3,5-triazin-2-yl)piperazin-1-yl)prop-2-en-1-one] | 8% | – | 13 ± 0.01% | 23 ± 4.22% | 95 ± 7.44% | – | – | – |
| C=CC(=O)NCCN1CCN(c2nc(N3CCOCC3)nc(-n3c(C(F)F)nc4ccccc43)n2)CC1 [Compound 10, N-(2-(4-(4-(2-(Difluoromethyl)-1H-benzo[d]imidazol-1-yl)-6-morpholino-1,3,5-triazin-2-yl)piperazin-1-yl)ethyl)acrylamide] | 20% | – | 3.99 ± 1.18% | 12.7 ± 1.69% | 74.5 ± 5.9% | – | – | – |
| CCCCCCN1CCN(c2nc(N3CCOCC3)nc(-n3c(C(F)F)nc4ccccc43)n2)CC1 [Compound 11, 4-(4-(2-(Difluoromethyl)-1H-benzo[d]imidazol-1-yl)-6-(4-hexylpiperazin-1-yl)-1,3,5-triazin-2-yl)morpholine] | 45% | – | 85.2 ± 3.71% | 74 ± 10.3% | 85.7 ± 5.71% | – | – | – |
| O=C(CCCCCNC(=O)COc1ccc(/C=C/C2=[N+]3C(=Cc4ccc(-c5cccs5)n4[B-]3(F)F)C=C2)cc1)NCCN1CCN(c2nc(N3CCOCC3)nc(-n3c(C(F)F)nc4ccccc43)n2)CC1 [Compound 13, (E)-3-(4-(2-((6-((2-(4-(4-(2-(Difluoromethyl)-1H-benzo[d]imidazol-1-yl)-6-morpholino-1,3,5-triazin-2-yl)piperazin-1-yl)ethyl)amino)-6-oxohexyl)amino)-2-oxoethoxy)styryl)-5,5-difluoro-7-(thiophen-2-yl)-5H-dipyrrolo[1,2-c:2′,1′-f][1,3,2]diazaborinin-4-ium-5-uide] | 13% | binds to the PI3Kgamma isoform | 47.5 ± 5.48% | 57.3 ± 6.86% | 95.5 ± 9.81% | active | – | – |
| CN1CCN(c2nc(N3CCOCC3)nc(-n3cnc4ccccc43)n2)CC1 [Compound 17, reference compound] | 83% | – | 122 ± 2.58% | 83 ± 3.31% | 123 ± 5.78% | – | – | – |

Continued, in another order:

| remaining activity at 0.2 µM (PI3Kalpha) | binding to PI3Kgamma isoform (in words) (PI3Kgamma isoform) | SMILES | activity at 1 µM (melanoma cell line A2058; [1]) | activity at 1 µM (melanoma cell line A2058; [2]) | activity at 1 µM (TSC2-/- MEFs cell line) | activity (in words) (PI3Kalpha) | inhibitor activity against PI3K (in words) (PI3Kalpha) | selectivity to mTOR (in words) (TSC2-/- MEFs cell line) |
| --- | --- | --- | --- | --- | --- | --- | --- | --- |
| 33% | – | CN1CCN(c2nc(N3CCOCC3)nc(-n3c(C(F)F)nc4ccccc43)n2)CC1 [Compound 5, 4-(4-(2-(Difluoromethyl)-1H-benzo[d]imidazol-1-yl)-6-(4-methylpiperazin-1-yl)-1,3,5-triazin-2-yl)morpholine] | 4.13 ± 0.37% | 18.5 ± 1.7% | 67.3 ± 1.26% | substantially more active than compound 17 | Increasing of inhibitor activity against PI3K | diminishing of selectivity to mTOR |
| 50% | – | NCCN1CCN(c2nc(N3CCOCC3)nc(-n3c(C(F)F)nc4ccccc43)n2)CC1 [Compound 9, 2-(4-(4-(2-(Difluoromethyl)-1H-benzo[d]imidazol-1-yl)-6-morpholino-1,3,5-triazin-2-yl)piperazin-1-yl)ethanamine] | 16.5 ± 0.24% | 30.9 ± 4.06% | 89.9 ± 9.5% | – | – | – |
| 42% | – | CCOCCN1CCN(c2nc(N3CCOCC3)nc(-n3c(C(F)F)nc4ccccc43)n2)CC1 [Compound 12, 4-(4-(2-(Difluoromethyl)-1H-benzo[d]imidazol-1-yl)-6-(4-(2-ethoxyethyl)piperazin-1-yl)-1,3,5-triazin-2-yl)morpholine] | 15.9 ± 2.46% | 24.4 ± 4.34% | 77.1 ± 4.62% | – | – | – |
